Experimental data: patent US20230201342A1, “USE OF LENVATINIB PLUS ANTI-PD-1 MONOCLONAL ANTIBODY IN PREPARATION OF ANTI-HEPATOMA DRUG” (Guangzhou X Cell Therapy Biomedical Tech Co., Ltd, priority 2021, published 2023)

How the values were obtained:
[1] = test system: CD8-positive T cells in Hepa1-6 tumor tissue; test: flow cytometry of CD45/CD8-positive cells in resected tumor tissue (Example 1); assay type: in vivo, mouse; settings: 10 mg/kg/day, after 3 weeks
Protocol: (§1) (1) Separately, 1×10^6 mouse hepatoma cells (Hepa1-6) were implanted into the subcutaneous stratum of the armpits of 20 […] mice aged 3-4 weeks. The mice were randomized into four groups: a blank control group, a 3 mg/kg/day lenvatinib group, a 10 mg/kg/day lenvatinib group, and a 30 mg/kg/day lenvatinib group. (2) When the size of the subcutaneous tumor reached 100-200 mm^3: each mouse of the 3 mg/kg/day lenvatinib group was orally administered with 3 mg/kg/day lenvatinib by gastric gavage once a day; each mouse of the 10 mg/kg/day lenvatinib group was orally administered with 10 mg/kg/day lenvatinib by gastric gavage once a day; and each mouse of the 30 mg/kg/day lenvatinib group was orally administered with 30 mg/kg/day lenvatinib by gastric gavage once a day. According to the existing literature, 30 mg/kg was a routine dose of lenvatinib (Selleck) for laboratory mice. (4) After 3 weeks, the mice were sacrificed, tumor tissues were resected, a part of fresh tumor tissue was separated and ground into a single cell suspension, and the proportion of positive cells labeled with CD45 and CD8 was detected by flow cytometry; meanwhile, the other part of tumor tissue was fixed and embedded, and vascular markers (CD31, α-SMA, and VEGFR2) and CD8-positive T cell infiltration were detected by immunohistochemistry.

[2] = test system: mouse hepatoma cells (Hepa1-6) xenograft; test: subcutaneous tumorigenicity assay, lenvatinib plus anti-PD-1 monoclonal antibody (Example 2); assay type: in vivo; settings: for growth of hepatoma xenograft: oral gavage, 3 weeks
From the text: Detection of the effects of different doses of lenvatinib plus anti-PD-1 monoclonal antibody on hepatoma xenograft by subcutaneous tumorigenicity assay of immunocompetent C57B/L mice.
(1) Separately, 1×10^6 mouse hepatoma cells (Hepa1-6) were implanted into the subcutaneous stratum of the armpits of 24 C57B/L mice aged 3-4 weeks. The mice were randomized into six groups: The mice were randomized into six groups: a blank control group, an anti-PD-1 monoclonal antibody alone group, a low-dose lenvatinib group, a high-dose lenvatinib group, a low-dose lenvatinib+anti-PD-1 monoclonal antibody group, and a high-dose lenvatinib+anti-PD-1 monoclonal antibody group.
(2) When the size of the subcutaneous tumor reached 100-200 mm^3: each mouse of the anti-PD-1 monoclonal antibody alone group was intraperitoneally administered with 200 μg of anti-PD-1 monoclonal antibody every three days; each mouse of the low-dose lenvatinib group was orally administered with 10 mg/kg/day lenvatinib by gastric gavage once a day; each mouse of the high-dose lenvatinib group was orally administered with 30 mg/kg/day lenvatinib by gastric gavage once a day; each mouse of the low-dose lenvatinib group+anti-PD-1 monoclonal antibody was orally administered with 10 mg/kg/day lenvatinib by gastric gavage once a day and intraperitoneally administered with 200 μg of anti-PD-1 monoclonal antibody every three days; and each mouse of the high-dose lenvatinib group+anti-PD-1 monoclonal antibody was orally administered with 30 mg/kg/day lenvatinib by gastric gavage once a day and intraperitoneally administered with 200 μg of anti-PD-1 monoclonal antibody every three days.
(4) After 3 weeks, the mice were sacrificed, and data statistics and reduction were conducted.

[3] = test system: CD31, NG2, CD8 in Hepa1-6 tumor tissue; test: immunohistochemistry of vascular markers and CD8-positive T cell infiltration in tumor tissue (Example 1); assay type: in vivo, mouse
Protocol: as §1

[4] = test system: mouse hepatoma cells (Hepa1-6) xenograft; test: subcutaneous tumorigenicity assay, tumor size (Example 1); assay type: in vivo
Protocol: 3. Detection of the effects of different doses of lenvatinib on hepatoma xenograft by subcutaneous tumorigenicity assay of immunocompetent C57B/L mice. (1) Separately, 1×10^6 mouse hepatoma cells (Hepa1-6) were implanted into the subcutaneous stratum of the armpits of 20 […] mice aged 3-4 weeks. The mice were randomized into four groups: a blank control group, a 3 mg/kg/day lenvatinib group, a 10 mg/kg/day lenvatinib group, and a 30 mg/kg/day lenvatinib group. (2) When the size of the subcutaneous tumor reached 100-200 mm^3: each mouse of the 3 mg/kg/day lenvatinib group was orally administered with 3 mg/kg/day lenvatinib by gastric gavage once a day; each mouse of the 10 mg/kg/day lenvatinib group was orally administered with 10 mg/kg/day lenvatinib by gastric gavage once a day; and each mouse of the 30 mg/kg/day lenvatinib group was orally administered with 30 mg/kg/day lenvatinib by gastric gavage once a day. According to the existing literature, 30 mg/kg was a routine dose of lenvatinib (Selleck) for laboratory mice. (3) The tumor size was measured every two days, and the difference in tumor size was compared among groups.

COc1cc2nccc(Oc3ccc(NC(=O)NC4CC4)c(Cl)c3)c2cc1C(N)=O [lenvatinib]
percentage of CD8-positive T cells in the tumor tissue [1]: significantly increased | difference in tumor growth between low-dose and high-dose groups ([2]; 10 vs 30 mg/kg/day lenvatinib alone): no significant difference | growth of hepatoma xenograft ([2]; high-dose lenvatinib 30 mg/kg/day): inhibit the growth of hepatoma xenograft | growth of hepatoma xenograft ([2]; low-dose lenvatinib 10 mg/kg/day): inhibit the growth of hepatoma xenograft | infiltrating CD8-positive T cells in the tumor tissue ([3]; 10 mg/kg/day): significantly increased | expression of peripheral cell marker molecule NG2 ([3]; 10 mg/kg/day only): upregulation | vascular normalization in tumor tissue ([3]; 10 mg/kg/day only): significantly improve vascular normalization | microvessel density (CD31) in hepatoma tissue ([3]; all three doses 3, 10, 30 mg/kg/day): significantly reduce | difference in tumor growth among the three dose groups ([4]; 3 vs 10 vs 30 mg/kg/day lenvatinib): no significant difference | growth of hepatoma xenograft (tumor size) ([4]; all three doses 3, 10, 30 mg/kg/day, oral gavage once a day, 3 weeks): inhibit the growth of hepatoma xenograft
